# Positions count from the first letter of the chain named.
# Legend:
# eIF2Bα^E198K = molecular target: T1, eIF2Bα^E198K (Homo sapiens, UniProt Q14232, E198K); experiment: Isothermal titration calorimetry, eIF2Bα E198K; type: binding; details: ITC
# T1 sequence (Q14232 1-305 E198K): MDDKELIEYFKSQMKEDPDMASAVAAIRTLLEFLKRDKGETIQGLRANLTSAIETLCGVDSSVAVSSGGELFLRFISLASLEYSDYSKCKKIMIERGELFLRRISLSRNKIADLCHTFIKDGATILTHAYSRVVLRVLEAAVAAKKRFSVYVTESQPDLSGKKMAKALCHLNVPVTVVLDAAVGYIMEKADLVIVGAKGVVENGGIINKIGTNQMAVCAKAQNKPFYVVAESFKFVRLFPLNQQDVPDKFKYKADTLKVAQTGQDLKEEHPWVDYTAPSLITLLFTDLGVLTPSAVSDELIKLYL
# Experimental: Interactions between recombinant protein and sugar phosphates were conducted with a MicroCal PEAQ-ITC (Malvern Panalytical Inc.). Experiments were performed in 25 mM HEPES, 150 mM NaCl, pH 7.5 at 20 °C. […] The final titration curves were fitted using MicroCal ITC data analysis software, assuming a single binding site per monomer.
# [1] = molecular target: T2, eIF2B in eIF2Bα^E198K HEK293T lysate (Homo sapiens, UniProt P49770+Q14232+Q9UI10, E198K); experiment: GEF activity assay with eIF2Bα E198K HEK293T lysate; type: biochemical
# T2 construct: endogenous in cells; host or cells: HEK293T, CRISPR knock-in eIF2Bα E198K (homozygous), lysate
# T2 sequence (P49770 whole entry, one chain of several): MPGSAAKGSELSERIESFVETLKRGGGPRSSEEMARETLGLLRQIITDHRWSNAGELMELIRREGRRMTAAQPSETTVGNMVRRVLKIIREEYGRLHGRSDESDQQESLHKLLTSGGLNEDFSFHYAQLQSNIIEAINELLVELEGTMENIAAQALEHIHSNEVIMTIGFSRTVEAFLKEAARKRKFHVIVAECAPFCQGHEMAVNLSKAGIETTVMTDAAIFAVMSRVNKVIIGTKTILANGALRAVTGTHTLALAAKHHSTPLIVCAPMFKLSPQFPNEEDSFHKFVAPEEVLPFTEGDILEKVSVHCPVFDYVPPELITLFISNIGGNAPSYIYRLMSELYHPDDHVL
# T2 sequence (Q9UI10 whole entry, one chain of several): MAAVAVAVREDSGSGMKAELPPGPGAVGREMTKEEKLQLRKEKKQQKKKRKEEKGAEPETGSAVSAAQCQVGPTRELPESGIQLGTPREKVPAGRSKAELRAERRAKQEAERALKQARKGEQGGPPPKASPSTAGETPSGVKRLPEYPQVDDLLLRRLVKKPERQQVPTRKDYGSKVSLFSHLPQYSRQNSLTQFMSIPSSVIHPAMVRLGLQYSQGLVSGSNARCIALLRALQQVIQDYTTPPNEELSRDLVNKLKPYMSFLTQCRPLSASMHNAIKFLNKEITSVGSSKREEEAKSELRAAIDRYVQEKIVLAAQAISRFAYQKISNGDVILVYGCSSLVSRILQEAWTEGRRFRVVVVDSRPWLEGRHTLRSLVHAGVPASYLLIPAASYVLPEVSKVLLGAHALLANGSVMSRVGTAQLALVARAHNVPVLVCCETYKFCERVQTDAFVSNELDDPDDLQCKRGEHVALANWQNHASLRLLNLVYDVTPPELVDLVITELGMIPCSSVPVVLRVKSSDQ
# T2 sequence (Q9NR50 whole entry partner, one chain of several): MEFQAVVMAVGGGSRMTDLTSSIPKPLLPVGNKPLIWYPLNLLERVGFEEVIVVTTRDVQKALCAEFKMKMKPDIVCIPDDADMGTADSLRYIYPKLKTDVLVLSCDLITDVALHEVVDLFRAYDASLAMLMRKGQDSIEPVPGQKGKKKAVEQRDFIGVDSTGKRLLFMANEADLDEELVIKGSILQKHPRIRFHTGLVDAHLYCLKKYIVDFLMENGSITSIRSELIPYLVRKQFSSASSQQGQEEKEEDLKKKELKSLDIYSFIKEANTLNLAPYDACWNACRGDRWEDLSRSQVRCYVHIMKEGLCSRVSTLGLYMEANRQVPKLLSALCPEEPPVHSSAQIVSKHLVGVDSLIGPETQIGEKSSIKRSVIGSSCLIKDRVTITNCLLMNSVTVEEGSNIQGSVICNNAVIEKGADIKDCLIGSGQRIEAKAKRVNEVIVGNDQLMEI
# T2 sequence (Q13144 whole entry partner, one chain of several): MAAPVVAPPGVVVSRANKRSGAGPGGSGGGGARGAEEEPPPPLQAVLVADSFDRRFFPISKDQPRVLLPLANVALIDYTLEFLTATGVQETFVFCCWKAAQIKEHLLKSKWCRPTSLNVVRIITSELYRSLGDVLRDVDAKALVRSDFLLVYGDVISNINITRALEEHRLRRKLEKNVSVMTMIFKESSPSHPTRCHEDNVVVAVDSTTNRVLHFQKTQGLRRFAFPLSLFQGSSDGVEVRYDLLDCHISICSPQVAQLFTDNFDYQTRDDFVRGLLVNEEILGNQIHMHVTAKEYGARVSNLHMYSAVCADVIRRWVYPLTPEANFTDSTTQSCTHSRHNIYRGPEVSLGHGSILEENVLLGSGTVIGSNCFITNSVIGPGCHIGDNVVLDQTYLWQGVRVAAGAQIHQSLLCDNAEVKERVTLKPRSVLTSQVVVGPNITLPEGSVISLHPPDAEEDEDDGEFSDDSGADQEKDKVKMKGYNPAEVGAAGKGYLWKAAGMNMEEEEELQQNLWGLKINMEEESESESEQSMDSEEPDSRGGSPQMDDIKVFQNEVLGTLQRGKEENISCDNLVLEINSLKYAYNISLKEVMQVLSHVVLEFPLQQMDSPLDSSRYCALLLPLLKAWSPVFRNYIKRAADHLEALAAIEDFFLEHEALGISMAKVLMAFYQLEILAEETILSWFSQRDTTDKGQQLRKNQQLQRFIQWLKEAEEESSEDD
# Experimental: Bodipy-FL-GDP-loaded eIF2 was used as a substrate for recombinant eIF2B. The assay was performed in 384-well plates. Reactions were read on a SpectraMax i3x plate reader (Molecular Devices) using the instrument’s Softmax Pro software with the following parameters: plate temperature = 25 °C; excitation wavelength = 485 nm (15 nm width); emission wavelength = 535 nm (25 nm width); read duration = 30 min at 45 s intervals. Data were analyzed in Prism. GDP release half-lives were calculated by fitting single-exponential decay curves.
# For unbiased screening, MIDAS metabolite libraries at 10 mM stock concentration were dispensed into wells of the assay plate using an Echo Acoustic Liquid Handler (Labcyte). In a final assay volume of 10 μL/well, the following conditions were kept constant: 25 nM Bodipy-FL-GDP-loaded eIF2, 4 nM phospho-eIF2, 0.1 mM GDP, 1 mg/mL BSA, 1 nM eIF2B, 10 μM metabolite. A single well was run for each metabolite. For targeted experiments with recombinant wild-type and mutant eIF2Bα, the following conditions were used: 50 nM Bodipy-FL-GDP-loaded eIF2, 0.1 mM GDP, 1 mg/ml BSA, 20 nM eIF2B. For targeted experiments with HEK293T lysates, the following conditions were used: 50 nM Bodipy-FL-GDP-loaded eIF2, 0.1 mM GDP, 1 mg/ml BSA, 0.1 or 0.3 mg/ml lysates.
# [2] = molecular target: T3, eIF2B decamer in WT HEK293T lysate (Homo sapiens, UniProt P49770+Q14232+Q9UI10); experiment: Sucrose gradient centrifugation, eIF2B complex assembly, WT HEK293T lysate; type: biochemical; details: 400 mM KCl, 5–20% sucrose gradient
# T3 construct: endogenous in cells; host or cells: HEK293T (wild type) lysate
# T3 sequence (Q14232 whole entry): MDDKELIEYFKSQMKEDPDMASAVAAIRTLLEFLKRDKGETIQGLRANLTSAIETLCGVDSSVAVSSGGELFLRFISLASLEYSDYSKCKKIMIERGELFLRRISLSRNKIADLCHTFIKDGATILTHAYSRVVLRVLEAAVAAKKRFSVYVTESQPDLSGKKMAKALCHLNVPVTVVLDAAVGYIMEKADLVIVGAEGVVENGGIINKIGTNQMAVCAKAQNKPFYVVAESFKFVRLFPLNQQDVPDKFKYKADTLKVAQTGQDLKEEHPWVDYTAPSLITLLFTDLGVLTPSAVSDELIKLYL
# T3 sequence (P49770 whole entry): as the sequence (P49770 whole entry, one chain of several) above
# T3 sequence (Q9UI10 whole entry): as the sequence (Q9UI10 whole entry, one chain of several) above
# T3 sequence (Q9NR50 whole entry partner): as the sequence (Q9NR50 whole entry partner, one chain of several) above
# T3 sequence (Q13144 whole entry partner): as the sequence (Q13144 whole entry partner, one chain of several) above
# Experimental: (§1) WT or eIF2Bα mutant HEK293T cells were harvested and lysed in 50 mM HEPES, 400 mM KCl, 1 mM DTT, 4 mM Mg(OAc)2, pH 7.5 + 0.5% Triton-X-100 + EDTA-free protease inhibitor cocktail (Roche) on ice for 30 min. Lysates were cleared by centrifugation at 48,000 × g, 4 °C for 30 min. 100 μL of each cleared lysate was loaded onto a 5–20% sucrose gradient prepared in a 13 × 51 mm ultracentrifuge tube using a Gradient Station (Biocomp) and centrifuged in a SW55 Ti rotor at 152,000 × g, 4 °C for 12 h. After centrifugation, 24 × 200 μL fractions were manually collected from the top to bottom of each gradient. Each fraction was subjected to methanol/chloroform precipitation and SDS-PAGE followed by Western Blot with the indicated antibodies. Blots were imaged on a ChemiDoc MP (Bio-Rad), and band intensities were quantified using the instrument’s Image Lab software. Each value was then divided by total intensity obtained across all fractions to determine percent enrichment of each subunit in each fraction.
# [3] = molecular target: T4, eIF2B decamer in eIF2Bα^E198K HEK293T lysate (Homo sapiens, UniProt P49770+Q14232+Q9UI10, E198K); experiment: Sucrose gradient centrifugation, eIF2B complex assembly, eIF2Bα E198K HEK293T lysate; type: biochemical
# T4 construct: endogenous in cells; host or cells: HEK293T, CRISPR knock-in eIF2Bα E198K (homozygous), lysate
# T4 sequence (P49770 whole entry, one chain of several): as the sequence (P49770 whole entry, one chain of several) above
# T4 sequence (Q9UI10 whole entry, one chain of several): as the sequence (Q9UI10 whole entry, one chain of several) above
# T4 sequence (Q9NR50 whole entry partner, one chain of several): as the sequence (Q9NR50 whole entry partner, one chain of several) above
# T4 sequence (Q13144 whole entry partner, one chain of several): as the sequence (Q13144 whole entry partner, one chain of several) above
# Experimental: as §1
# eIF2Bα^V183F = molecular target: T5, eIF2Bα^V183F (Homo sapiens, UniProt Q14232, V183F); experiment: Size-exclusion chromatography of recombinant eIF2Bα V183F, alone or with eIF2B(βδγε); type: biochemical; details: SEC, eIF2Bα V183F alone
# T5 construct: made in house; host or cells: E. coli BL21(DE3)
# T5 sequence (Q14232 1-305 V183F): T1 sequence (Q14232 1-305 E198K) with V183F, K198E
# Experimental: Purified proteins were thawed and centrifuged at 20,000 × g, 10 min, 4 °C to remove any potential precipitate. Concentrations of eIF2B(βδγε) and eIF2Bα were normalized to 2 μM and 2.4 μM, respectively. 0.2 mL of each mixture was injected onto a Superose 6 Increase 10/300 column connected to an AKTA Pure 25 FPLC system (GE Healthcare). The system was run at 0.5 mL/min for 1 h using 25 mM HEPES, 200 mM KCl, 2 mM MgCl2, 1 mM DTT, pH 7.5 as the mobile phase. For conditions with ISRIB, the protein samples and mobile phase were supplemented with 500 nM ISRIB. For conditions with F6P, the protein samples and mobile phase were supplemented with 200 μM F6P. UV280 measurements were obtained directly by the instrument.
structure (smiles),measurement,setting,value
"O=C(CO)[C@@H](O)[C@H](O)[C@H](O)COP(=O)(O)O [F6P, fructose-6-phosphate]",Kd,eIF2Bα^E198K; eIF2Bα E198K,99 ± 12 µM
same,reduction of affinity of eIF2Bα E198K,eIF2Bα^E198K; compared with wild-type eIF2Bα,11 fold
same,effect on GEF activity of eIF2Bα E198K lysate,[1],does not respond
same,eIF2B decamer formation (migration of eIF2Bα and eIF2Bδ),[2],induced stabilization of the eIF2B decamer comparable to ISRIB
same,eIF2B decamer formation,[3],unresponsive
same,monomer-to-dimer shift of eIF2Bα V183F,eIF2Bα^V183F,induced a partial shift from the monomer to the dimer peak

# From PMC8187479, “Sugar phosphate activation of the stress sensor eIF2B” (Nature Communications, 2021)
